Reference: patent US12440492B2, “Pharmaceutical compositions comprising AKT protein kinase inhibitors” (Genentech, Inc., priority 2016, dated 2025)
Several values for one entry are separate records, joined by “and”; a condition that tells them apart may be missing. Equal values may be shown once. Where a name gives a salt, the structure may show the parent alone.

Tests used:
Type in all cases: physicochemical
[1] = Particle size distribution (d10, d50, d90) by laser diffraction
Description: FIG. 6 illustrates particle size distribution of the material of Example 6C (Batch HQ00003) spray dried with two-feed nozzle as obtained by laser diffraction A bimodal particle size distribution is obvious. FIG. 9 illustrates particle size distribution of spray dried material with rotary wheel nozzle, i.e. of the material of batch BS1506SA03 of Example 13 (Table 20) obtained using a Malvern Mastersizer 2000 equipped with Hydro 2000S wet sample dispersion unit (Malvern Instruments Ltd, Malvern/UK). A monomodal particle size distribution is obvious. The terms “d50 value” (sometimes also referred to as “d(0.5)-value”) and “mass-median diameter” (or MMD) can be used interchangeably and denote the average particle size by mass, i.e. the average equivalent diameter of a particle, which is defined as the diameter where 50% (w) of the particles of the ensemble have a larger equivalent spherical diameter, and the other 50% (w) have a smaller equivalent spherical diameter. In analogy, the term “d10-value” denotes the particle diameter wherein 10% (w) of the particles of the ensemble have a smaller equivalent spherical diameter. In analogy, the term “d90-value” denotes the particle diameter wherein 90% (w) of the particles of the ensemble have a smaller equivalent spherical diameter.

[2] = Bulk density, tapped density and Carr index; settings: for Bulk density / Tapped density: monohydrochloride
[3] = Shear cell testing with Ring Shear Tester RST-XS
Description: Similar to the classification used by Jenike (Dietmar Schulze, Pulver und Schüttgüter, 2009 Springer Verlag Berlin/DE), one can define flow behaviour based on the flow function constant (ffc) as follows:
The larger the flow function constant ffc, i.e., the smaller the ratio of the unconfined yield strength (σc) to the consolidation stress (σ1), the better a bulk solid's flow.

[4] = Solid state by X-ray powder diffraction; settings: * indicates absence of crystalline API; for Solid state / Polymorphy (X-Ray, XRPD): monohydrochloride
Description: Bragg's law describes the diffraction of crystalline material with the equation “2d·sin(theta)=n·lambda”, wherein “d” denotes perpendicular distance (in Angstroms) between pairs of adjacent planes in a crystal (“d-spacing”), “theta” denotes the Bragg angle, “lambda” denotes the wavelength and “n” is an integer. When Bragg's law is fulfilled, the reflected beams are in phase and interfere constructively so that Bragg diffraction peaks are observed in the X-ray diffraction pattern. At angles of incidence other than the Bragg angle, reflected beams are out of phase and destructive interference or cancellation occurs. […] The XRPD pattern of an amorphous material is further characterized by one or more amorphous halos.
The term “XRPD” denotes the analytical method of X-Ray Powder Diffraction. The repeatability of the angular values is in the range of 2Theta±0.2°, more particularly in the range of 2Theta±0.1°. The term “approximately” given in combination with an angular value denotes the variance which is in the range of 2Theta±0.2°, particularly in the range of 2Theta±0.1°. The relative XRPD peak intensity is dependent upon many factors such as structure factor, temperature factor, crystallinity, polarization factor, multiplicity, and Lorentz factor. Relative intensities may vary considerably from one measurement to another due to preferred orientation effects. According to USP 941 (US Pharmacopoeia, 37th Edition, General Chapter 941), relative intensities between two samples of the same material may vary considerably due to “preferred orientation” effects. Anisotropic materials adopting preferred orientation will lead to anisotropic distribution of properties such as modulus, strength, ductility, toughness, electrical conductivity, thermal expansion, etc., as described e.g. in Kocks U. F. et al. (Texture and Anisotropy: Preferred Orientations in Polycrystals and Their Effect on Materials Properties, Cambridge University Press, 2000). In XRPD but also Raman spectroscopy, preferred orientations cause a change in the intensity distribution. Preferred orientation effects are particularly pronounced with crystalline APIs of relatively large particle size.

[5] = spray-dried amorphous ipatasertib monohydrochloride, rotary wheel atomizer
[6] = Pre-shear stress 1000 PA, 30 mL shear cell, monohydrochloride
[7] = spray dried amorphous ipatasertib monohydrochloride powder

| Particle size d10 [1, 5] | Particle size d50 [1, 5] | Particle size d90 [1, 5] | Bulk density [2, 5] | Tapped density [2, 5] | Consolidation stress (σ1) [3, 6] | Flow Function Constant (ffc) [3, 6] | Polymorphy (X-Ray) [4] | Particle size d10 [1, 7] | Particle size d50 [1, 7] | Particle size d90 [1, 7] | Bulk density [2, 7] | Tapped density [2, 7] | Solid state / Polymorphy (X-Ray, XRPD) [4] | Compound | further results |
| --- | --- | --- | --- | --- | --- | --- | --- | --- | --- | --- | --- | --- | --- | --- | --- |
| 12 μm | 32 μm | 63 μm | 0.41 gcm^−3 | 0.56 gcm^−3 | 1683 PA | 3.2 | amorphous* | – | – | – | – | – | – | CC(C)NC[C@@H](C(=O)N1CCN(c2ncnc3c2[C@H](C)C[C@H]3O)CC1)c1ccc(Cl)cc1 [BS1506SA06, ipatasertib monohydrochloride] | – |
| 11 μm | 30 μm | 62 μm | 0.40 gcm^−3 | 0.56 gcm^−3 | 1707 PA | 3.2 | amorphous* | – | – | – | – | – | – | CC(C)NC[C@@H](C(=O)N1CCN(c2ncnc3c2[C@H](C)C[C@H]3O)CC1)c1ccc(Cl)cc1 [BS1506SA04, ipatasertib monohydrochloride] | – |
| 13 μm | 33 μm | 65 μm | 0.41 gcm^−3 | 0.57 gcm^−3 | 1668 PA | 3.5 | amorphous* | – | – | – | – | – | – | CC(C)NC[C@@H](C(=O)N1CCN(c2ncnc3c2[C@H](C)C[C@H]3O)CC1)c1ccc(Cl)cc1 [BS1506SA05, ipatasertib monohydrochloride] | – |
| – | – | – | – | – | 1726 PA | 2.9 | – | 11 μm | 27 μm | 54 μm | 0.39 gcm^−3 | 0.55 gcm^−3 | amorph.* | CC(C)NC[C@@H](C(=O)N1CCN(c2ncnc3c2[C@H](C)C[C@H]3O)CC1)c1ccc(Cl)cc1 [Composition 140910417, ipatasertib monohydrochloride] | – |
| – | – | – | – | – | 1729 PA | 3.5 | – | 11 μm | 33 μm | 67 μm | 0.44 gcm^−3 | 0.58 gcm^−3 | amorph.* | CC(C)NC[C@@H](C(=O)N1CCN(c2ncnc3c2[C@H](C)C[C@H]3O)CC1)c1ccc(Cl)cc1 [Composition 140910419, ipatasertib monohydrochloride] | – |
| – | – | – | – | – | 1731 PA | 2.8 | – | 10 μm | 27 μm | 52 μm | 0.40 gcm^−3 | 0.55 gcm^−3 | amorph.* | CC(C)NC[C@@H](C(=O)N1CCN(c2ncnc3c2[C@H](C)C[C@H]3O)CC1)c1ccc(Cl)cc1 [Composition 140910416, ipatasertib monohydrochloride] | – |
| – | – | – | – | – | – | – | – | 11.4 μm | 31 μm | 64 μm | 0.47 gcm^−3 | 0.61 gcm^−3 | amorphous* | CC(C)NC[C@@H](C(=O)N1CCN(c2ncnc3c2[C@H](C)C[C@H]3O)CC1)c1ccc(Cl)cc1 [Composition 140110401, ipatasertib monohydrochloride] | – |
| – | – | – | – | – | – | – | – | 8.5 μm | 21 μm | 43 μm | 0.24 gcm^−3 | 0.37 gcm^−3 | amorph.* | CC(C)NC[C@@H](C(=O)N1CCN(c2ncnc3c2[C@H](C)C[C@H]3O)CC1)c1ccc(Cl)cc1 [Composition 141210426, ipatasertib monohydrochloride] | – |
| 11 μm | 31 μm | 64 μm | 0.40 gcm^−3 | 0.52 gcm^−3 | 1701 PA | 3.5 | amorphous* | – | – | – | – | – | – | CC(C)NC[C@@H](C(=O)N1CCN(c2ncnc3c2[C@H](C)C[C@H]3O)CC1)c1ccc(Cl)cc1 [BS1506SA02, ipatasertib monohydrochloride] | – |
| 13 μm | 34 μm | 68 μm | 0.43 gcm^−3 | 0.56 gcm^−3 | 1686 PA | 3.4 | amorphous* | – | – | – | – | – | – | CC(C)NC[C@@H](C(=O)N1CCN(c2ncnc3c2[C@H](C)C[C@H]3O)CC1)c1ccc(Cl)cc1 [BS1506SA08, ipatasertib monohydrochloride] | – |
| – | – | – | – | – | – | – | – | 0.8 μm | 3.0 μm | 5.7 μm | 0.262 gcm^−3 and 0.26 gcm^−3 | 0.423 gcm^−3 and 0.42 gcm^−3 | – | CC(C)NC[C@@H](C(=O)N1CCN(c2ncnc3c2[C@H](C)C[C@H]3O)CC1)c1ccc(Cl)cc1 [Example 6C′, ipatasertib monohydrochloride] | Carr Index [2, 7]: 38%; Consolidation stress (σ1) ([3]; Pre-shear stress 1000 PA): 2118 PA; Flow Function Constant (ffc) ([3]; Pre-shear stress 1000 PA): 1.08; tc ([3]; Pre-shear stress 1000 PA): 514 Pa; Consolidation stress (σ1) ([3]; Pre-shear stress 2000 PA): 4844 PA; Flow Function Constant (ffc) ([3]; Pre-shear stress 2000 PA): 1.09; tc ([3]; Pre-shear stress 2000 PA): 1095 Pa; Consolidation stress (σ1) ([3]; Pre-shear stress 4000 PA): 9557 PA; Flow Function Constant (ffc) ([3]; Pre-shear stress 4000 PA): 1.12; tc ([3]; Pre-shear stress 4000 PA): 2041 Pa; ffc ([3]; across all pre-shear stresses): around 1.1; flowability ([3]; shear cell testing): very poor flowability |
| – | – | – | – | – | 1733 PA | 2.4 | – | 9.7 μm | 24 μm | 47 μm | 0.32 gcm^−3 | 0.44 gcm^−3 | amorph.* | CC(C)NC[C@@H](C(=O)N1CCN(c2ncnc3c2[C@H](C)C[C@H]3O)CC1)c1ccc(Cl)cc1 [Composition 140910420, ipatasertib monohydrochloride] | – |
| – | – | – | – | – | – | – | – | 8.4 μm | 21 μm | 42 μm | 0.32 gcm^−3 | 0.47 gcm^−3 | Amorphous* | CC(C)NC[C@@H](C(=O)N1CCN(c2ncnc3c2[C@H](C)C[C@H]3O)CC1)c1ccc(Cl)cc1 [Composition 130710452, ipatasertib monohydrochloride] | – |
| – | – | – | – | – | – | – | – | 10.2 μm | 26 μm | 53 μm | 0.41 gcm^−3 | 0.54 gcm^−3 | amorphous* | CC(C)NC[C@@H](C(=O)N1CCN(c2ncnc3c2[C@H](C)C[C@H]3O)CC1)c1ccc(Cl)cc1 [Composition 140110406, ipatasertib monohydrochloride] | – |
| – | – | – | – | – | – | – | – | 9.5 μm | 27 μm | 54 μm | 0.37 gcm^−3 | 0.54 gcm^−3 | amorph.* | CC(C)NC[C@@H](C(=O)N1CCN(c2ncnc3c2[C@H](C)C[C@H]3O)CC1)c1ccc(Cl)cc1 [Composition 141210424, ipatasertib monohydrochloride] | – |
| – | – | – | – | – | – | – | – | 9.3 μm | 26 μm | 58 μm | 0.34 gcm^−3 | 0.50 gcm^−3 | amorphous* | CC(C)NC[C@@H](C(=O)N1CCN(c2ncnc3c2[C@H](C)C[C@H]3O)CC1)c1ccc(Cl)cc1 [Composition 140110408, ipatasertib monohydrochloride] | – |
